# According to patent US20260001864A1, “COMPOUND CONTAINING SULFAMIDE STRUCTURE, AND PREPARATION METHOD THEREFOR AND APPLICATION THEREOF, AND PHARMACEUTICAL COMPOSITION AND APPLICATION” (Nanjing Shuohui Pharmatechnology Co., Ltd, priority 2021, published 2026):
# Test system: histamine-induced gastric acid secretion
# Experiment: Inhibition of histamine-induced gastric acid secretion in rats (pylorus ligation)
# Format: in vivo, rat
# Conditions: SD rats, 2 mg/kg by gavage, total acid over 3 h after histamine
# Method: 70 SPF-level SD rats with a weight of 180-220 g (Hangzhou Medical College (produced)), randomly grouped by weight, including negative control groups (isovolumetric saline) and model control groups (isovolumetric saline), and compounds obtained in the foregoing preparation examples of the present invention (i.e., compounds or compound hydrochlorides) (2 mg/kg or 4 mg/kg), 10 rats each group, including 5 males and 5 females. The rats were fasted, but were allowed to drink water for 24 h. After 24 h, the rats were given the compound at 1 ml/100 g by gavage, once in each group, and the rats in the negative control groups and the model groups were given an equal volume of saline by gavage. After that, the rats were anesthetized with chloral hydrate 300 mg/kg (1 ml/100 g) and fixed on a rat plate, and the abdominal wall was incised along the abdominal midline from the subxiphoid process of the sternum, and the incision was approximately 2-3 cm and was made on the left costal margin, and the stomach was exposed to the incision by gently pushing it with the fingers upwards. The pylorus was ligated with a thread under the pylorus (other neighboring vessels were not ligated), and the abdominal wall incision was sutured. The animals were given histamine dihydrochloride (30 mg/10 ml/kg) subcutaneously after 1 h of gavage of the test compound or saline. After 3 h of histamine administration, the rats were asphyxiated with excess CO2, stomachs were removed, stomach contents were collected and centrifuged at 3000 rpm/min for 10 min, and the acid solution was titrated with 0.1 mol/L NaOH to pH7.0. The total acidity and acid inhibition rate during the 3 h period were calculated.
# Acid inhibition rate (%)=(Total acid in the model group−total acid in the test group)/total acid in the model group×100%
row,SMILES,Acid inhibition rate
1,CNCc1cc(-c2ccc(OCC3CCOCC3)cc2F)n(S(=O)(=O)c2cccnc2)c1 [Compound 6],48%
2,CNCc1cc(-c2ccc(OC(C)C3CCOCC3)cc2F)n(S(=O)(=O)c2cccnc2)c1 (centres unmarked) [Compound 8],71%
3,CNCc1cc(-c2ccc(OCC3CCOCC3)cc2F)n(S(=O)(=O)c2cccc(C#N)c2)c1 [Compound 28],71%
4,CNCc1cc(-c2ccc(OC(C)C3CCOCC3)cc2F)n(S(=O)(=O)c2cccc(OCCCOC)c2)c1 (centres unmarked) [Compound 37],56%
5,CNCc1cc(-c2ccc(OC(C)c3c(F)cccc3F)cc2F)n(S(=O)(=O)c2cccnc2)c1 (centres unmarked) [Compound 67],64%
6,CNCc1cc(-c2ccc(OCc3ccc(OC)nc3)cc2F)n(S(=O)(=O)c2cccnc2)c1 [Compound A4],60%
7,CNCc1cc(-c2ccc(OCc3cccnn3)cc2F)n(S(=O)(=O)c2cccnc2)c1 [Compound A7],53%
8,CNCc1cc(-c2ccc(OCC3CCCO3)cc2F)n(S(=O)(=O)c2cccnc2)c1 (centres unmarked) [Compound A14],63%
9,CNCc1cc(-c2ccc(OCC3CCO3)cc2F)n(S(=O)(=O)c2cccnc2)c1 (centres unmarked) [Compound A15],64%

# Target: H+/K+-ATPase (rabbit gastric mucosal microsomes) (Oryctolagus cuniculus (Rabbit), UniProt P27112)
# Sequence (P27112 whole entry): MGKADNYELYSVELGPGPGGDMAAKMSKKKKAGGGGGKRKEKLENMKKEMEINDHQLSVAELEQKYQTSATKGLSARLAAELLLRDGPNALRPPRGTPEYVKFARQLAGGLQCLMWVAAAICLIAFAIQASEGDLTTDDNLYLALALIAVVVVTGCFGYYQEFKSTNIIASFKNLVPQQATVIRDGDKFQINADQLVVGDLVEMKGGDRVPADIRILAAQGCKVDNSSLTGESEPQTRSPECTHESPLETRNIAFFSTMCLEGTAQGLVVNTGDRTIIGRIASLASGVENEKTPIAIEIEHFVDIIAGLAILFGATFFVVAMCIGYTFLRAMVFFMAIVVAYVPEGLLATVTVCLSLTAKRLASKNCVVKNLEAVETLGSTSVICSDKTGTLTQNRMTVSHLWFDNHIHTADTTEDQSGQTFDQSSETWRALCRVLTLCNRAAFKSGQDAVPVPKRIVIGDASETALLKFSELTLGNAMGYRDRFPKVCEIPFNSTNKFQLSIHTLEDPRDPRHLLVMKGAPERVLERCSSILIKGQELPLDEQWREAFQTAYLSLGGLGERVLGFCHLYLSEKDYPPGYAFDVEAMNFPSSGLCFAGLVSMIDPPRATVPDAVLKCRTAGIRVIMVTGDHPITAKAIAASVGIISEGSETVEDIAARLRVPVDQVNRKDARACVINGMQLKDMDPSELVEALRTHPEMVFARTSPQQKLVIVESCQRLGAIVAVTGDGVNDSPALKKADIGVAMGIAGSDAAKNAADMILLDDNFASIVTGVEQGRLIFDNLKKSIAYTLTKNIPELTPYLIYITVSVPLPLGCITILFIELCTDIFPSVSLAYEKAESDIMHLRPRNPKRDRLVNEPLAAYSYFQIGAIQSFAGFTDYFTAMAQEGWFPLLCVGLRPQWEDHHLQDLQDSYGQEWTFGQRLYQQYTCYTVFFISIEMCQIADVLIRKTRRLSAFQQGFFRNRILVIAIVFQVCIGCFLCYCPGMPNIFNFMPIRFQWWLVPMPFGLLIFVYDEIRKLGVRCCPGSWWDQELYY
# Sequence (P18597 whole entry partner): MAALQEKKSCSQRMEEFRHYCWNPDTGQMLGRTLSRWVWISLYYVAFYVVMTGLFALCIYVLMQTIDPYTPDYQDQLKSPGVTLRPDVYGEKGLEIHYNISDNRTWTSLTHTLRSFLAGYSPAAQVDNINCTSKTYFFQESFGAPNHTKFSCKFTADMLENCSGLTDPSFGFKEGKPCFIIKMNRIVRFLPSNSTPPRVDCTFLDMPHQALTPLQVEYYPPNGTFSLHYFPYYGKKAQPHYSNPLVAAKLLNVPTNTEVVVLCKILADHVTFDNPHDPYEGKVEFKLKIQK
# Experiment: In vitro screening test of H+/K+-ATPase inhibition (malachite green)
# Format: biochemical
# Conditions: pH 6.5, 37° C. 30 min, read-out: IC50, inhibitory effect on H+/K+-ATPase activity
# Text: This test example evaluates the inhibitory effects of the compounds of the present invention on the activity of H+/K+-ATPase by an in vitro screening test, and expresses them with the IC50 values of the compounds (obtained by calculating the inhibition rates at different concentrations).
# • Compound solutions: The products (i.e., the compounds or the hydrochloride salt of compounds) obtained in the foregoing preparation examples of the present invention were each independently dissolved in DMSO to form solutions at suitable concentrations; • Buffer I: 50 mmol/L HEPEs-Tris, pH=6.5, 5 mmol/L magnesium chloride, […] valinomycin (J&K Scientific Ltd., goods No.: 227304); • Buffer II: 50 mmol/L HEPEs-Tris, pH=6.5, 5 mmol/L magnesium chloride, […] valinomycin, 5 mmol/L potassium chloride; • 5-adenosine triphosphate (ATP, Sigma-Aldrich, goods No.: A2383) solution: Dilute ATP with buffer I to 5 mM; • Malachite green solution: Dissolve 0.12 wt % malachite green (J&K Scientific Ltd., goods No.: 913120) in 2.5 mol/L sulfuric acid, 7.5 wt % ammonium molybdate (J&K Scientific Ltd., goods No.: 128321) and 11% Tween 20(V/V). During use, sulfuric acid, ammonium molybdate and Tween 20 are mixed in a ratio of 100:25:2; • Rabbit gastric mucosal microsomes (rich in H+/K+-ATPase, self-extracted), extracted by sucrose gradient centrifugation: The rabbit stomach was washed with tap water and 3M NaCl solution, respectively, and then the surface water was removed with filter paper. A pre-cooled homogenization buffer (4 ml/g tissue) was added and homogenized for 2-5 min in a tissue homogenizer. After the homogenizing, if there are large tissue particles, they can be removed by centrifugation (600 g, 10 min). The supernatant was then transferred to a clean centrifuge tube and centrifuged at 20,000 g for 30 min, then the supernatant was transferred to a clean centrifuge tube and further centrifuged at 100,000 g for 90 min and the precipitate was collected; the precipitate was suspended in homogenate and blown evenly, and the protein concentration was measured by the Bradford's method and adjusted to 10 mg/ml; 7.5 wt % Ficoll's layering solution was added in equal proportions. After centrifugation at 100,000 g for 60 min, the middle layer (H^+/K^+-ATPase-enriched gastric membranes) was collected in a clean centrifuge tube, diluted with homogenate by 4-5 times, and then centrifuged at 100,000 g for another 90 min, and the precipitate was collected; the precipitate was suspended in homogenate and homogenized in a glass homogenizer, and the protein concentration was measured by the Bradford's method and adjusted to 22.5 mg/ml. It was frozen at −80° C. and stored for future use.
# 5 μL of rabbit gastric mucosal microsomes (H^+/K^+-ATPase) was added to 45 μL of buffer II, then 5 μL of compound solution was added, and then 5 μL of 5 mM ATP solution was added to start the reaction and pre-react at 37° C. for 30 min. 15 μL of malachite green solution was added to terminate the reaction, balancing was conducted at room temperature for 20 min, and read the optical absorbance at 620 nm.
# Meanwhile, the reaction of the same volume was carried out without addition of potassium chloride as a background, which was subtracted when calculating enzymatic activity.
row,SMILES,IC50
1,CNCc1cc(-c2ccc(OCC3CCOCC3)cc2F)n(S(=O)(=O)c2cccnc2)c1 [Compound 6],149 nM
2,CNCc1cc(-c2ccc(OC(C)C3CCOCC3)cc2F)n(S(=O)(=O)c2cccnc2)c1 (centres unmarked) [Compound 8],72.1 nM
3,CNCc1cc(-c2ccc(OCC3CCOCC3)cc2F)n(S(=O)(=O)c2cccc(C#N)c2)c1 [Compound 28],30.8 nM
4,CNCc1cc(-c2ccc(OC(C)C3CCOCC3)cc2F)n(S(=O)(=O)c2cccc(OCCCOC)c2)c1 (centres unmarked) [Compound 37],157 nM
5,CNCc1cc(-c2ccc(OCc3cccc4ccccc34)cc2F)n(S(=O)(=O)c2cccc(C#N)c2)c1 [Compound 63],1060 nM
6,CNCc1cc(-c2ccc(OCc3ccc(C(=O)O)cc3)cc2F)n(S(=O)(=O)c2cccnc2)c1 [Compound 64],164 nM
7,CNCc1cc(-c2ccc(OC(C)c3cc(F)ccc3F)cc2F)n(S(=O)(=O)c2cccnc2)c1 (centres unmarked) [Compound 65],80.5 nM
8,CNCc1cc(-c2ccc(O[C@@H](C)c3c(Cl)ccc(F)c3Cl)cc2F)n(S(=O)(=O)c2cccnc2)c1 [Compound 66],485 nM
9,CNCc1cc(-c2ccc(OC(C)c3c(F)cccc3F)cc2F)n(S(=O)(=O)c2cccnc2)c1 (centres unmarked) [Compound 67],41 nM
10,CNCc1cc(-c2ccc(OC(C)c3cc(F)cc(F)c3)cc2F)n(S(=O)(=O)c2cccnc2)c1 (centres unmarked) [Compound 68],41.4 nM
11,CNCc1cc(-c2ccc(OC(C)c3c(F)cccc3F)cc2F)n(S(=O)(=O)c2cccc(C#N)c2)c1 (centres unmarked) [Compound 69],114 nM
12,CNCc1cc(-c2ccc(OC(C)c3cc(F)cc(F)c3)cc2F)n(S(=O)(=O)c2cccc(C#N)c2)c1 (centres unmarked) [Compound 70],88.1 nM
13,CNCc1cc(-c2ccc(OC(C)c3cc(F)cc(F)c3)cc2F)n(S(=O)(=O)c2cccc(OCC3CC3)c2)c1 (centres unmarked) [Compound 71],496 nM
14,CNCc1cc(-c2ccc(OC(C)c3c(F)cccc3F)cc2F)n(S(=O)(=O)c2cccc(OCC3CC3)c2)c1 (centres unmarked) [Compound 72],342 nM
15,CNCc1cc(-c2ccc(OCc3ccc(C)cc3C)cc2F)n(S(=O)(=O)c2cccnc2)c1 [Compound 73],209 nM
16,CNCc1cc(-c2ccc(OCc3ccncc3)cc2F)n(S(=O)(=O)c2cccnc2)c1 [Compound 74],564 nM
17,CNCc1cc(-c2ccc(OCc3ccccc3OC)cc2F)n(S(=O)(=O)c2cccnc2)c1 [Compound 75],36.6 nM
18,CNCc1cc(-c2ccc(O[C@H](C)c3c(Cl)ccc(F)c3Cl)cc2F)n(S(=O)(=O)c2cccnc2)c1 [Compound 76],470 nM
19,CNCc1cc(-c2ccc(OCc3ccsc3)cc2F)n(S(=O)(=O)c2cccnc2)c1 [Compound 77],120 nM
20,CNCc1cc(-c2ccc(OCc3cc(F)ccc3F)cc2F)n(S(=O)(=O)c2cccc(Cl)c2)c1 [Compound 78],98.5 nM
21,CNCc1cc(-c2ccc(OCc3cc(F)ccc3F)cc2F)n(S(=O)(=O)c2cccc(F)c2)c1 [Compound 79],55.3 nM
22,CNCc1cc(-c2ccc(OCc3cc(F)ccc3F)cc2F)n(S(=O)(=O)c2cc(F)cc(F)c2)c1 [Compound 80],65.9 nM

row,SMILES,IC50
1,CNCc1cc(-c2ccc(OCc3cc(F)ccc3F)cc2F)n(S(=O)(=O)c2ccc(C)c(F)c2)c1 [Compound 81],56.6 nM
2,CCCCCOc1cccc(S(=O)(=O)n2cc(CNC)cc2-c2ccc(OCc3cc(F)ccc3F)cc2F)c1 [Compound 82],3660 nM
3,CNCc1cc(-c2ccc(OC(C)c3c(F)cccc3F)cc2F)n(S(=O)(=O)c2cccc(OCC3CCC3)c2)c1 (centres unmarked) [Compound 83],13300 nM
4,CNCc1cc(-c2ccc(OCc3cc(F)ccc3F)cc2F)n(S(=O)(=O)c2cccc(OCC3CCCC3)c2)c1 [Compound 84],109 nM
5,CNCc1cc(-c2ccc(OC(C)c3c(F)cccc3F)cc2F)n(S(=O)(=O)c2cccc(OCC3CCCC3)c2)c1 (centres unmarked) [Compound 85],9780 nM
6,CNCc1cc(-c2ccc(OCc3cc(F)ccc3F)cc2F)n(S(=O)(=O)c2cccc(OCCOC)c2)c1 [Compound 86],34.4 nM
7,CNCc1cc(-c2ccc(OCc3ccccc3OC)cc2F)n(S(=O)(=O)c2cccc(OCCOC)c2)c1 [Compound 87],43.4 nM
8,CNCc1cc(-c2ccc(OC(C)c3c(F)cccc3F)cc2F)n(S(=O)(=O)c2cccc(OCCCOC)c2)c1 (centres unmarked) [Compound 88],450 nM
9,CNCc1cc(-c2ccc(OC(C)c3cc(F)cc(F)c3)cc2F)n(S(=O)(=O)c2cccc(OCCCOC)c2)c1 (centres unmarked) [Compound 89],1330 nM
10,CNCc1cc(-c2ccc(OCc3ccc4ccccc4c3)cc2F)n(S(=O)(=O)c2cccc(OCCCCOC)c2)c1 [Compound 90],2690 nM
11,CNCc1cc(-c2ccc(OC(C)c3c(F)cccc3F)cc2F)n(S(=O)(=O)c2cccc(OCCCCOC)c2)c1 (centres unmarked) [Compound 91],693 nM
12,CNCc1cc(-c2ccc(OC(C)c3cc(F)cc(F)c3)cc2F)n(S(=O)(=O)c2cccc(OCCCCOC)c2)c1 (centres unmarked) [Compound 92],1910 nM
13,CNCc1cc(-c2ccc(OCc3cccc4c3OCO4)cc2F)n(S(=O)(=O)c2cccc(OCCCCOC)c2)c1 [Compound 93],12400 nM
14,CNCc1cc(-c2ccc(OCc3cccc4c3OCO4)cc2F)n(S(=O)(=O)c2cccnc2)c1 [Compound 94],48.4 nM
15,CNCc1cc(-c2ccc(OCc3cccc4c3OCO4)cc2F)n(S(=O)(=O)c2cccc(C#N)c2)c1 [Compound 95],9.5 nM
16,CNCc1cc(-c2ccc(OCc3cccc4c3OCCO4)cc2F)n(S(=O)(=O)c2cccnc2)c1 [Compound 96],51.1 nM
17,CNCc1cc(-c2ccc(OCc3cccc4c3OCCO4)cc2F)n(S(=O)(=O)c2cccc(C#N)c2)c1 [Compound 97],11.9 nM
18,CNCc1cc(-c2ccc(OCc3cc(F)ccc3F)cc2F)n(S(=O)(=O)c2cccc(C(F)(F)F)c2)c1 [Compound 98],485 nM
19,CNCc1cc(-c2ccc(OCCc3cc(F)cc(F)c3)cc2F)n(S(=O)(=O)c2cccnc2)c1 [Compound 99],72.6 nM
20,CNCc1cc(-c2ccc(OCc3ccoc3)cc2F)n(S(=O)(=O)c2cccnc2)c1 [Compound 100],101 nM
21,CNCc1cc(-c2ccc(OCc3cccnc3C)cc2F)n(S(=O)(=O)c2cccnc2)c1 [Compound A2],155 nM
22,CNCc1cc(-c2ccc(OCc3ncccc3F)cc2F)n(S(=O)(=O)c2cccnc2)c1 [Compound A6],157 nM
